What follows are molecules tested against T1, HSD17B13 enzyme (Homo sapiens, UniProt Q7Z5P4) (assay: LC/MS estrone detection assay: conversion of estradiol to estrone by HSD17B13). Settings: 4 μM Estradiol, 6mM NAD, 30 nM HSD17B13 enzyme (E. coli expressed His-tagged), 2 hours at 26.5° C.
T1 construct: His; made in house; host or cells: E. coli
T1 sequence (Q7Z5P4 20-300): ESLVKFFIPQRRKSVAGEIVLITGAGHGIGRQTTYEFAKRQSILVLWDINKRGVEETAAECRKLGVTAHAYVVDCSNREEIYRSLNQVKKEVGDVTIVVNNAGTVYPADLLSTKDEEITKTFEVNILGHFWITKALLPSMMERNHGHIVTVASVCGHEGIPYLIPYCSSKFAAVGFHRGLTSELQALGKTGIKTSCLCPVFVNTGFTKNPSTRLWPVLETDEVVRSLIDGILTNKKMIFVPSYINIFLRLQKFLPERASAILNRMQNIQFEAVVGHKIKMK
Format: biochemical
Experimental: Example A: Estrone Detection Assay for Evaluation of HSD17β13 Activity and Identification of Inhibitors
The liquid chromatography/mass spectrometry (LC/MS) estrone detection assay monitors the conversion of estradiol to estrone by HSD17B13. This assay was undertaken in a 96wp format (Eppendorf deep well Plate 96/500) in an 80 μl reaction volume containing: 4 μM of Estradiol (E2: Cayman: #10006315), 6mM NAD (Sigma: #N0623) and 30 nM HSD17B13 enzyme (in-house: E. coli expressed His-tagged, purified, soluble protein) in a reaction containing […] potassium phosphate buffer pH 7.4, with 0.5% vehicle (DMSO). Reactions were incubated for 2 hours at 26.5° C., and estradiol (E2) conversion to estrone (E1) was quantitated by LC-MS/MS based analyte detection for both E2 and E1 using LCMS grade reagents.
Reactions were terminated by the addition of two volumes of acetonitrile (MeCN: LCMS grade: CAS #75/05/8) containing deuterated (D4)-E1 used as internal standard (Clear Synth: #CS-T-54273: 500 ng/mL final concentration). Samples were applied to pre-prepared Bond Elut-C18 extraction cartridges (3 mL: Agilent: #12102028), washed and eluted in MeCN. Eluates were dried under nitrogen and re-suspended in 60% methanol (LCMS grade methanol: CAS #67/56/1) before submission for analysis. Aqueous linearity for E2 and E1 were included for quantification.
Analysis of samples was undertaken on a XBridge BEH C18 column (Waters: #186003033) using 0.1% Diethyl Amine in MeCN (mobile phase A: DEA CAS #109-89-7) and 0.1% Diethyl Amine in milli-Q water (mobile phase B) in a 3 min gradient allowing 25% B. Analytes were detected in negative mode using MRM analysis, with E2 having a RT of 1.85 min and E1 having a RT of 2 min Activity of the enzyme, in the absence of NAD′, was used to evaluate specificity of conversion. Enzyme activity in the presence of test samples was expressed as a percentage of the uninhibited enzyme activity, and plotted versus inhibitor concentration. Non-linear regression was performed using a four-parameter logistic model and GraphPad Prism software (GraphPad Software, La Jolla, CA). All assessments were undertaken in duplicate evaluations and pooled during extraction process and subsequently injected as duplicates for LC-MS/MS analysis.
With O=C(Nc1scnc1C(=O)NC(CO)c1ccccc1)c1ccc(O)c(Cl)c1 (stereo in doubt) [Example 6, (R)-5-(3-chloro-4-hydroxybenzamido)-N-(2-hydroxy-1-phenylethyl)thiazole-4-carboxamide] the IC50 was ≤ 0.1 µM.
Work on COC(=O)C(NC(=O)c1scnc1NC(=O)c1ccc(O)c(Cl)c1)c1ccccc1 (stereo in doubt) [Example 7, methyl (R)-2-(4-(3-chloro-4-hydroxybenzamido)thiazole-5-carboxamido)-2-phenylacetate] yielded an IC50 of 0.1 to 0.5 µM.
In the case of O=C(Nc1ncsc1C(=O)NC(C(=O)O)c1ccccc1)c1ccc(O)c(Cl)c1 (stereo in doubt) [Example 8, (R)-2-(4-(3-chloro-4-hydroxybenzamido)thiazole-5-carboxamido)-2-phenylacetic Acid], the IC50 is reported as 1 to 10 µM.
In the case of O=C(Nc1ncsc1C(=O)NCCc1ccccc1C(F)(F)F)c1ccc(O)c(C(F)(F)F)n1 [Example 1, 4-(5-hydroxy-6-(trifluoromethyl)picolinamido)-N-(2-(trifluoromethyl)phenethyl)thiazole-5-carboxamide], the IC50 is reported as 0.1 to 0.5 µM.
Work on O=C(Nc1ncsc1C(=O)NCCc1ccccc1F)c1ccc(O)c(C(F)(F)F)n1 [Example 2, N-(2-fluorophenethyl)-4-(5-hydroxy-6-(trifluoromethyl)picolinamido)thiazole-5-carboxamide] yielded an IC50 of 0.1 to 0.5 µM.
For CC(C)(C)CCNC(=O)c1scnc1NC(=O)c1ccc(O)c(C(F)(F)F)n1 [Example 3, N-(3,3-dimethylbutyl)-4-(5-hydroxy-6-(trifluoromethyl)picolinamido)thiazole-5-carboxamide], the IC50 was 0.5 to 1 µM.
In the case of O=C(Nc1ncsc1C(=O)NCc1ccccc1C(F)(F)F)c1cc(F)c(O)c(F)c1 [Example 4, 4-(3,5-difluoro-4-hydroxybenzamido)-N-(2-(trifluoromethyl)benzyl)thiazole-5-carboxamide], the IC50 is reported as ≤ 0.1 µM.
Cc1nsc(NC(=O)c2ccc(O)c(Cl)c2)c1C(=O)NCCC(C)(C)C [Example 5, 5-(3-chloro-4-hydroxybenzamido)-N-(3,3-dimethylbutyl)-3-methylisothiazole-4-carboxamide] was tested, and the IC50 was ≤ 0.1 µM.
In the case of O=C(Nc1ncsc1C(=O)NCc1ccccc1C(F)(F)F)c1cc(F)c(O)c(Cl)c1 [Example 9, 4-(3-chloro-5-fluoro-4-hydroxybenzamido)-N-{[2-(trifluoromethyl)phenyl]methyl}-1,3-thiazole-5-carboxamide], the IC50 is reported as ≤ 0.1 µM.
In the case of O=C(Nc1ncsc1C(=O)NCc1ccccc1F)c1cc(F)c(O)c(Cl)c1 [Example 10, 4-(3-chloro-5-fluoro-4-hydroxybenzamido)-N-(2-fluorobenzyl)thiazole-5-carboxamide], the IC50 is reported as 0.1 to 0.5 µM.
O=C(Nc1ncsc1C(=O)NCc1ccccc1OC(F)(F)F)c1cc(F)c(O)c(Cl)c1 [Example 11, 4-(3-chloro-5-fluoro-4-hydroxybenzamido)-N-(2-(trifluoromethoxy)benzyl)thiazole-5-carboxamide] was tested, and the IC50 was 0.1 to 0.5 µM.
In the case of COc1ccccc1CCNC(=O)c1nc(C)sc1NC(=O)c1ccc(O)c(Cl)c1 [Example 12, 5-(3-chloro-4-hydroxybenzamido)-N-(2-methoxyphenethyl)-2-methylthiazole-4-carboxamide], the IC50 is reported as ≤ 0.1 µM.
For O=C(Nc1scnc1C(=O)NCc1ccccc1OC(F)(F)F)c1cc(Cl)c(=O)[nH]n1 [Example 13, 5-(5-chloro-6-oxo-1,6-dihydropyridazine-3-carboxamido)-N-(2-(trifluoromethoxy)benzyl)thiazole-4-carboxamide], the IC50 was 0.5 to 1 µM.
For CC(C)c1cc(C(=O)Nc2scnc2C(=O)NCc2ccccc2OC(F)(F)F)n[nH]c1=O [Example 14, 5-(5-isopropyl-6-oxo-1,6-dihydropyridazine-3-carboxamido)-N-(2-(trifluoromethoxy)benzyl)thiazole-4-carboxamide], the IC50 was > 10 µM.
With O=C(Nc1scnc1C(=O)NCc1ccccc1OC(F)(F)F)c1ccc(=O)[nH]n1 [Example 15, 5-(6-oxo-1,6-dihydropyridazine-3-carboxamido)-N-(2-(trifluoromethoxy)benzyl)thiazole-4-carboxamide] the IC50 was > 10 µM.
For O=C(Nc1scnc1C(=O)NCc1ccccc1OC(F)(F)F)c1c[nH]c(=O)cn1 [Example 16, 5-(5-oxo-4,5-dihydropyrazine-2-carboxamido)-N-(2-(trifluoromethoxy)benzyl)thiazole-4-carboxamide], the IC50 was > 10 µM.
